Here are results for eight compounds from ChEMBL document CHEMBL1201862, “PubChem BioAssay data set” (2004).

The structures appear in SMILES notation.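 How tested: cells in 96-well plates exposed to compound for 48 hours at five concentrations. GI50 = concentration required for 50% inhibition of growth.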 Active and inactive are the calls of the source. Cut-off read from the data, not from the text of the source: active = GI50 up to about 1.1 µM and inactive = higher.

Holding throughout (assay): NCI-60 cell line screen, 48 h
The test system of assay [1] is MOLT-4.
The test system of assay [2] is MDA-MB-435.
Assay [3] relates to LOX IMVI.
In assay [4] the test system is MDA-MB-231.
In assay [5] the test system is OVCAR-5.
The test system of assay [6] is CCRF-CEM.
The test system of assay [7] is KM12.
Assay [8] concerns HOP-62.
The test system of assay [9] is SN12C.
Assay [10] deals with NCI/ADR-RES.
The subject of assay [11] is COLO 205.
Assay [12] concerns OVCAR-8.
Assay [13] deals with HCT-15.
The test system of assay [14] is UACC-257.
Assay [15] deals with ACHN.
The test system of assay [16] is OVCAR-3.
In assay [17] the test system is SF-268.
The test system of assay [18] is SF-295.
The test system of assay [19] is NCI-H460.
Assay [20] deals with SK-MEL-2.

On to `OC(Cc1ccc2ccccc2n1)(C(F)(F)F)C(F)(F)F`, for which the GI50 in assay [1], in [2], in assay [3], in assay [4], in assay [5] and in [6] was > 10 µM (inactive) throughout. Further, the GI50 in assay [7], in assay [8], in [9], in [10], in assay [11] and in assay [12] was > 10 µM (inactive) in each case. Also, the GI50 in assay [13] was over 10 µM; in [14], > 10 µM (inactive); in [15], > 10 µM (inactive); in assay [16], > 10 µM (inactive); in assay [17], > 10 µM (inactive); in assay [18] it was > 10 µM (inactive). Further, the GI50 in assay [19] is > 10 µM (inactive).

`CN(C)CCN(C)P12(Oc3ccccc3O1)Oc1c(Cl)c(Cl)c(Cl)c(Cl)c1O2`: the GI50 in assay [1] was 34 µM (inactive); in [2] it was 50.9 µM (inactive); in [3] it was 63 µM (inactive); in assay [4], 69.8 µM (inactive); in assay [5] it was 46.1 µM (inactive); in [6], 29 µM (inactive). The GI50 was 45 µM (inactive) in assay [8]; 42.6 µM (inactive) in [9]; 35.8 µM (inactive) in assay [10]; > 100 µM (inactive) in assay [11]; 40.7 µM (inactive) in [12]; 40 µM in assay [13]. The GI50 in assay [14] was 29.5 µM (inactive); in [15] it was 39.8 µM (inactive); in assay [16] it was 27.9 µM (inactive); in [17] it was 36.1 µM (inactive); in assay [18] it was 37.1 µM (inactive); in [19] it was 37.2 µM (inactive).

Turning to `O=C(O)c1ccccc1/C=N\N(CCO)C1=NCCN1`, the GI50 in assay [1], in assay [2], in [3], in assay [4], in assay [5] and in [6] was > 100 µM (inactive) in each case. Besides, the GI50 in [7], in assay [20], in [8], in assay [9], in assay [11] and in assay [12] was > 100 µM (inactive) each time. Further, the GI50 was over 100 µM in assay [13]; > 100 µM (inactive) in assay [15]; > 100 µM (inactive) in assay [16]; > 100 µM (inactive) in assay [17]; > 100 µM (inactive) in [18]; > 100 µM (inactive) in assay [19].

For the compound `O=[N+]([O-])C(C=C(n1nnc2ccccc21)n1nnc2ccccc21)=C(n1nnc2ccccc21)n1nnc2ccccc21`, the GI50 in [1] was 26.2 µM (inactive); in [2] it was > 100 µM (inactive); in assay [3] it was > 100 µM (inactive); in assay [4], > 100 µM (inactive); in [5] it was > 100 µM (inactive); in assay [6] it was 25 µM (inactive). Also, the GI50 in [7], in [8], in assay [9], in [10], in assay [11] and in assay [12] was > 100 µM (inactive) throughout. Moreover, the GI50 in [13] was over 100 µM; in assay [15], > 100 µM (inactive); in assay [16], > 100 µM (inactive); in [17] it was > 100 µM (inactive); in assay [18], > 100 µM (inactive); in assay [19], > 100 µM (inactive).

As for `CCCCOCCOCCOC1=C(Cl)C(=O)c2c(O)ccc(O)c2C1=O`, the GI50 in assay [1] was 0.0138 µM (active); in [3] it was 0.512 µM (active); in assay [4], 0.488 µM (active); in assay [5], 2.52 µM (inactive); in assay [6] it was < 0.01 µM (active); in assay [7], 1.79 µM (inactive). For the same compound, the GI50 in [8] is 1.19 µM (inactive); in [9] it was 1.61 µM (inactive); in assay [10], 1.97 µM (inactive); in assay [11] it was 0.259 µM (active); in [12], 1.37 µM (inactive); in assay [13], 0.388 µM. Besides, the GI50 in [14] is 0.766 µM (active); in [15], 1.59 µM (inactive); in [16], 0.877 µM (active); in assay [17] it was 0.759 µM (active); in assay [18] it was 1.73 µM (inactive); in assay [19], 1.85 µM (inactive).

On to `Clc1cccc(-c2sc(-c3cccs3)cc2Cc2cccs2)c1`, for which the GI50 in [1] was > 10 µM (inactive); in [2], > 10 µM (inactive); in assay [3], > 10 µM (inactive); in assay [4], 9.84 µM (inactive); in assay [6], > 10 µM (inactive); in assay [7], > 10 µM (inactive). Besides, the GI50 in assay [8] is > 10 µM (inactive); in [9], > 10 µM (inactive); in assay [10] it was > 10 µM (inactive); in assay [11], > 10 µM (inactive); in assay [12] it was > 10 µM (inactive); in [13] it was 2.79 µM. In addition, the GI50 in assay [14], in assay [15], in [17], in assay [18] and in assay [19] was > 10 µM (inactive) each time.

Take `CCOC(=O)CNC1=NNS(=O)(=O)c2ccccc21`: the GI50 in assay [1] was 54.1 µM (inactive); in [2] it was > 100 µM (inactive); in assay [3], > 100 µM (inactive); in assay [4], > 100 µM (inactive); in [5], > 100 µM (inactive); in assay [6] it was 59.8 µM (inactive). Also, the GI50 in assay [7], in assay [8], in [9], in [10], in assay [11] and in assay [12] was > 100 µM (inactive) each time. Further, the GI50 is over 100 µM in [13]; > 100 µM (inactive) in [14]; > 100 µM (inactive) in assay [15]; > 100 µM (inactive) in [16]; > 100 µM (inactive) in assay [17]; > 100 µM (inactive) in [18]. Besides, in assay [19], the GI50 was 32.6 µM (inactive).

As for `CN1C(CC(O)c2ccccc2)CCCC1CC(O)(c1ccccc1)c1ccccc1` (centres undefined), the GI50 in assay [1] was 17.5 µM (inactive); in assay [3] it was 20.3 µM (inactive); in assay [4], 22.6 µM (inactive); in assay [5], 15 µM (inactive); in assay [6], 19.8 µM (inactive); in [7], 18.5 µM (inactive). The GI50 in [8] is 14.3 µM (inactive); in assay [9], 17.8 µM (inactive); in assay [10] it was 16.9 µM (inactive); in assay [11] it was 16.4 µM (inactive); in assay [12] it was 20.8 µM (inactive); in assay [13], 16.5 µM. In addition, the GI50 in assay [14] was 17.6 µM (inactive); in assay [15] it was 19.7 µM (inactive); in assay [16] it was 15.6 µM (inactive); in [17], 18.7 µM (inactive); in assay [18] it was 16.9 µM (inactive).
